# Results: publication PMC11407620, “Repurposing auranofin and meclofenamic acid as energy-metabolism inhibitors and anti-cancer drugs” (PLOS ONE, 2024)
# Where two headings read alike, the source gives them in different places.
# Tests used:
# Cervix HeLa cells = assay: Cell proliferation, 24 h drug exposure; format: cell-based, human; details: for IC50: Cervix HeLa, 24 h, read-out: IC50 for proliferation cell rate; for effect on proliferation after shorter exposure: HeLa cells, 12 h exposure; for TI ratio (3T3/ cancer cells): IC50 3T3 / IC50 HeLa; for TI ratio (H9C2/cancer cells): IC50 H9C2 / IC50 HeLa
# Protocol: (§1) All metastatic (breast MDA-MB231, MDA-MB468, cervix HeLa, prostate PC3, colorectal HCT116, COLO205, glioblastoma U373), low-metastatic (breast MCF-7) cancer and non-cancer (fibroblast 3T3, cardiomyocytes H9C2) cell lines (American Type Culture Collection, Rockville, MD, USA) used in this study were cultured in Petri dishes in 20 mL of Dulbecco’s Modified Eagle’s Medium (DMEM, Sigma, MO, USA) supplemented with 10% fetal bovine serum (Biowest, Mexico) and 10,000 U penicillin/streptomycin (Sigma-Aldrich, MO, USA). […] For growth and maintenance, cells were incubated in 5% CO2/95% air at 37°C and kept until 80–90% of confluence was reached. Then, cells were harvested, washed by centrifugation and resuspended in Krebs-Ringer buffer (KR, 125 mM NaCl, 5 mM KCl, 25 mM Hepes, 1 mM MgCl2, 1 mM KH2PO4, 1.4 mM CaCl2, pH 7.4) for further use. For experimentation, cancer cells (3–5 x 10^6 cells) were cultured in DMEM (with 25 mM glucose) for 24 h in the absence of drugs. Afterwards, old-medium was replaced with fresh DMEM medium (with 25 mM glucose) in the absence (control, non-treated cells) or in the presence of logarithmic concentrations of Aur and MA for 24 h more, under the same culture conditions described above. Viability of cultured cells was determined by the trypan blue exclusion assay. The protein concentration was determined by the Lowry method.
# For cell proliferation in the presence of drugs, cancer cells (20 x 10^3 cells/well) were grown in 96-well plates containing DMEM (Sigma-Aldrich) plus 10% bovine fetal serum for 24 h. […] The effect of these drugs on cell proliferation was determined in 96-well plates by the MTT (3-[4,5-dimethyl-thiazol-2-yl]-2,5-diphenyltetrazolium bromide) assay. The viability of cancer cells was > 95% after treatment with drugs.
# [1] = test system: H9C2 mouse cardiomyocytes; assay: Cell proliferation, 24 h drug exposure (non cancer cells); format: cell-based; details: read-out: IC50 for proliferation cell rate
# Protocol: as §1
# (§2) For cell proliferation in the presence of drugs, cancer cells (20 x 10^3 cells/well) were grown in 96-well plates containing DMEM (Sigma-Aldrich) plus 10% bovine fetal serum for 24 h. Afterwards, Aur or MA (0.01, 0.1, 10 and 100 μM) were added to the cell cultures and incubated for additional 24 h. The effect of these drugs on cell proliferation was determined in 96-well plates by the MTT (3-[4,5-dimethyl-thiazol-2-yl]-2,5-diphenyltetrazolium bromide) assay. The viability of cancer cells was > 95% after treatment with drugs.
# 3T3 mouse fibroblasts = assay: as above; format: cell-based; details: 3T3 mouse fibroblasts (non cancer), read-out: IC50 for proliferation cell rate
# Protocol: as §1, §2
# [2] = test system: HeLa, MDA-MB-231 and MDA-MB-468 cells; assay: Energy metabolism pathway fluxes in intact cancer cells, pooled; format: cell-based, human; details: 24 h
# Protocol: For glycolysis flux, cells (3 mg protein/mL) were incubated in KR buffer. Glycolysis was started by adding 5 mM external glucose (Sigma-Aldrich, MO, USA), and cellular samples were withdrawn after 0 and 10 min of incubation at 37°C under smooth orbital shaking. At the indicated times, the cells were rapidly mixed with 3% (w/v) ice-cold perchloric acid and centrifuged. The supernatants were neutralized with 1N KOH/100mM Tris. To rule out lactate production by glutaminolysis, cells were also incubated with 10 mM 2-deoxyglucose (Sigma-Aldrich, MO, USA). Lactate was determined by a standard method with lactate dehydrogenase (Roche, Mannheim, Germany) following the NADH formation at 340 nm.
# For oxidative phosphorylation (OxPhos) flux, cells (2–5 mg protein/mL) were incubated at 37°C in air saturated KR medium plus 5 mM glucose. […] The net OxPhos rate was determined by using a Clark type electrode, as previously described and by using a high-resolution respirometer (Oroboros Instruments, Innsbruck, Austria) at 37°C. The contribution of OxPhos and glycolysis to the cellular ATP supply was determined, respectively, from the net OxPhos rate (oligomycin-sensitive respiration) multiplied by the ATP/O or P»/O2 ratio that corresponds to 2.5 or 5, and from the rate of lactate production, assuming a stoichiometry of 1 mol of ATP produced per 1 mol of lactate produced.
# Rat Liver Mitochondria = assay: Oxygen consumption of isolated mitochondria; format: biochemical; details: for Net State 3 oxygen consumption rate / Pseudo State 4 oxygen consumption rate / RC, respiratory control / State 3 oxygen consumption rate / State 4 oxygen consumption rate / RC: Rat Liver Mitochondria
# Protocol: Rat liver (RLM) and heart (RHM) mitochondria were isolated as described previously by differential centrifugation.
# Respiration of AS-30D, liver and heart mitochondria (1 mg protein/mL) was assayed oxygraphically with a Clark-type O2 electrode in KME (120 mM KCl, 20 mM Mops, 1 mM EGTA) buffer pH 7.2 plus 2 mM KH2PO4, and different oxidizable substrates (as indicated in Results). For state 3 respiration, 600 nmol ADP were added. Mitochondria were incubated at 37°C with Aur and MA for 30–60 s before substrates were added. At the end of each respiratory measurement, dithionite was added to get the chemical zero oxygen signal.
# Isolated mitochondria (1mg protein/mL) were incubated in KME buffer (120 mM KCl, 20 mM MOPS, 1 mM EGTA) pH 7.20 plus 2 mM KH2PO4 and the indicated oxidizable substrates. For state 3 (ADP-stimulated) respiration, 300-600 nmol ADP were added. RC, respiratory control; n=3. To get the maximal reduction of molecular oxygen (zero oxygen concentration), sodium dithionite (Na2O4S2) was added at the end of each measurement.
# [3] = 5 mM Glutamate/5 mM Malate, 10 μM Aur
# [4] = 5 mM Glutamate/5 mM Malate, 25 μM Aur
# [5] = 5 mM Glutamate/5 mM Malate, 50 μM Aur
# [6] = 5 mM Glutamate/5 mM Malate, 100 μM Aur
# [7] = Succinate 0.5 mM + Rotenone 2 µM, 10 µM Aur
# [8] = Succinate 0.5 mM + Rotenone 2 µM, 25 µM Aur
# [9] = Succinate 0.5 mM + Rotenone 2 µM, 50 µM Aur
# [10] = Succinate 0.5 mM + Rotenone 2 µM, 100 µM Aur
# [11] = 5 mM Glutamate/5 mM Malate, 10 μM MA
# [12] = 5 mM Glutamate/5 mM Malate, 50 μM MA
smiles,measurement,setting,value
"CC(=O)OC[C@H]1O[C@@H]([S-])[C@H](OC(C)=O)[C@@H](OC(C)=O)[C@@H]1OC(C)=O.CCP(CC)CC.[Au+] [Aur, [1-(thio-κS)-β-D-glucopyranose-2,3,4,6-tetraacetyl] (triethylphosphine)-gold]",IC50,Cervix HeLa cells,1.7 ± 0.4 µM
same,effect on proliferation after shorter exposure,Cervix HeLa cells,< 15%
same,TI ratio (3T3/ cancer cells),Cervix HeLa cells,25
same,TI ratio (H9C2/cancer cells),Cervix HeLa cells,46
same,IC50,[1],78 ± 15 µM
same,IC50,3T3 mouse fibroblasts,42 ± 17 µM
same,inhibition of OxPhos and glycolysis fluxes,"[2]; HeLa and MDA-MB-231 cells, Aur at IC50",48–75%
same,inhibition of state 3 respiration rates,Rat Liver Mitochondria; RLM,20–54%
same,increase of state 4 respiration rates (times),"Rat Liver Mitochondria; RLM, GM",1.8–1.9 times
same,Net State 3 oxygen consumption rate,Rat Liver Mitochondria; [3],123.5 ± 59 nmol O2 min^-1 mg protein^-1
same,Pseudo State 4 oxygen consumption rate,Rat Liver Mitochondria; [3],27.5 ± 3 nmol O2 min^-1 mg protein^-1
same,"RC, respiratory control",Rat Liver Mitochondria; [3],8 ± 1
same,State 3 oxygen consumption rate,Rat Liver Mitochondria; [3],151 ± 61.5 nmol O2 min^-1 mg protein^-1
same,State 4 oxygen consumption rate,Rat Liver Mitochondria; [3],18 ± 5 nmol O2 min^-1 mg protein^-1
same,Net State 3 oxygen consumption rate,Rat Liver Mitochondria; [4],62 nmol O2 min^-1 mg protein^-1
same,Pseudo State 4 oxygen consumption rate,Rat Liver Mitochondria; [4],27 (2) nmol O2 min^-1 mg protein^-1
same,"RC, respiratory control",Rat Liver Mitochondria; [4],6 (2)
same,State 3 oxygen consumption rate,Rat Liver Mitochondria; [4],89 (2) nmol O2 min^-1 mg protein^-1
same,State 4 oxygen consumption rate,Rat Liver Mitochondria; [4],15 (2) nmol O2 min^-1 mg protein^-1
same,Net State 3 oxygen consumption rate,Rat Liver Mitochondria; [5],48 nmol O2 min^-1 mg protein^-1
same,Pseudo State 4 oxygen consumption rate,Rat Liver Mitochondria; [5],30.5 (2) nmol O2 min^-1 mg protein^-1
same,"RC, respiratory control",Rat Liver Mitochondria; [5],5.5 (2)
same,State 3 oxygen consumption rate,Rat Liver Mitochondria; [5],78.5 (2) nmol O2 min^-1 mg protein^-1
same,State 4 oxygen consumption rate,Rat Liver Mitochondria; [5],16 (2) nmol O2 min^-1 mg protein^-1
same,Net State 3 oxygen consumption rate,Rat Liver Mitochondria; [6],25 nmol O2 min^-1 mg protein^-1
same,Pseudo State 4 oxygen consumption rate,Rat Liver Mitochondria; [6],48 (2) nmol O2 min^-1 mg protein^-1
same,"RC, respiratory control",Rat Liver Mitochondria; [6],3 (2)
same,State 3 oxygen consumption rate,Rat Liver Mitochondria; [6],73 (2) nmol O2 min^-1 mg protein^-1
same,State 4 oxygen consumption rate,Rat Liver Mitochondria; [6],26 (2) nmol O2 min^-1 mg protein^-1
same,Net State 3 oxygen consumption rate,Rat Liver Mitochondria; [7],116 (2)
same,Pseudo State 4 oxygen consumption rate,Rat Liver Mitochondria; [7],33 (2)
same,RC,Rat Liver Mitochondria; [7],5.4 (2)
same,State 3 oxygen consumption rate,Rat Liver Mitochondria; [7],150 (2)
same,State 4 oxygen consumption rate,Rat Liver Mitochondria; [7],68 (2)
same,Net State 3 oxygen consumption rate,Rat Liver Mitochondria; [8],88 (2)
same,Pseudo State 4 oxygen consumption rate,Rat Liver Mitochondria; [8],73 (2)
same,RC,Rat Liver Mitochondria; [8],4.8 (2)
same,State 3 oxygen consumption rate,Rat Liver Mitochondria; [8],161 (2)
same,State 4 oxygen consumption rate,Rat Liver Mitochondria; [8],39.5 (2)
same,Net State 3 oxygen consumption rate,Rat Liver Mitochondria; [9],36.5 (2)
same,Pseudo State 4 oxygen consumption rate,Rat Liver Mitochondria; [9],63.5 (2)
same,RC,Rat Liver Mitochondria; [9],2.3 (2)
same,State 3 oxygen consumption rate,Rat Liver Mitochondria; [9],95.5 (2)
same,State 4 oxygen consumption rate,Rat Liver Mitochondria; [9],40.5 (2)
same,Net State 3 oxygen consumption rate,Rat Liver Mitochondria; [10],20 (2)
same,Pseudo State 4 oxygen consumption rate,Rat Liver Mitochondria; [10],59 (2)
same,RC,Rat Liver Mitochondria; [10],2.5 (2)
same,State 3 oxygen consumption rate,Rat Liver Mitochondria; [10],64 (2)
same,State 4 oxygen consumption rate,Rat Liver Mitochondria; [10],56 (2)
"Cc1ccc(Cl)c(Nc2ccccc2C(=O)O)c1Cl [MA, Meclofenamic acid]",effect on proliferation after shorter exposure,Cervix HeLa cells,< 15%
same,IC50,Cervix HeLa cells; Homo sapiens,6 ± 3 µM
same,TI ratio (3T3/ cancer cells),Cervix HeLa cells,17
same,TI ratio (H9C2/cancer cells),Cervix HeLa cells,17
same,IC50,[1],> 100 µM
same,IC50,3T3 mouse fibroblasts; Fibroblast,> 100 µM
same,inhibition of OxPhos flux,[2]; MA 6–50 μM (Table 2),31–66%
same,Net State 3 oxygen consumption rate,Rat Liver Mitochondria; [11],81 (1)
same,Pseudo State 4 oxygen consumption rate,Rat Liver Mitochondria; [11],32.5 (1)
same,RC,Rat Liver Mitochondria; [11],8.6 (1)
same,State 3 oxygen consumption rate,Rat Liver Mitochondria; [11],113.5 (1)
same,State 4 oxygen consumption rate,Rat Liver Mitochondria; [11],13.5 (1)
same,Net State 3 oxygen consumption rate,Rat Liver Mitochondria; [12],61 ± 27
same,Pseudo State 4 oxygen consumption rate,Rat Liver Mitochondria; [12],42 ± 15 (3)
same,RC,Rat Liver Mitochondria; [12],2.1 ± 0.2 (3)
same,State 3 oxygen consumption rate,Rat Liver Mitochondria; [12],102 ± 23 (3)
same,State 4 oxygen consumption rate,Rat Liver Mitochondria; [12],50 ± 17 (3)
